Experimental data: patent US8597646B2, “Methods and compositons featuring TGF-beta antagonists for the treatment of marfan syndrome and associated disorders” (The Johns Hopkins University, priority 2005, dated 2013)
Entries after “also recorded” stand apart in the source; their conditions may differ.

Columns and labels:
Format in all cases: in vivo, mouse
Fbn1C1039G/+ mice [1] = test: Steady-state skeletal muscle architecture and fiber cross sectional area in Fbn1C1039G/+ mice; conditions: for Steady-state muscle architecture, in words: fibrillin-1 deficient mice, monopotassium salt
Procedure: Wild-type and Fbn1^C1039G/+ mice received intraperitoneal injections of TGFβ-neutralizing antibody (R&D Systems, once every two weeks) starting at 7 weeks of age. The antibody was diluted in PBS (pH 7.4) and administered at a dose of 1 mg/kg or 10 mg/kg body weight. Rabbit IgG (10 mg/kg; Zymed Laboratories Inc.) was administered in a similar fashion as a negative control. Mice were sacrificed after 2 months of treatment and a minimum of 6 mice per genotype were used for histologic and morphometric analyses.
(§1) Mice were continued on oral therapy for 6 months and sacrificed. […] Age-matched wild-type and mdx mice (placebo-treated) served as a control group. After 6 months of treatment, forelimb and hindlimb grip strength was assessed using an automated grip strength meter (Columbus Instruments, Columbus, Ohio). The experiments for forelimb and hindlimb grip strength testing were conducted at different days allowing for a minimum recovery period of 10 days. Total peak force (in Newtons) was determined by an electronic strain gauge as previously described and corrected for body weight (Wagner, K. R., et al. (2002) Ann Neurol 52, 832-6). Five measurements within 2 minutes were taken from each animal. […] The degree of fatigue was calculated by comparing the first two pulls to the last two pulls with the decrement between pulls 1+2 and pulls 4+5 providing a measure of fatigue. […]
For morphometric analyses, skeletal muscle was flash frozen in cooled isopentane and mounted in Tragacanth (Sigma Aldrich, USA). […] Muscle fibers were counted in a defined area (9 mm^2) of the tibialis anterior muscle of 10-day-old wild-type (n=3) and Fbn1C1039G/C1039G mice (n=6) and fiber diameter was determined by measuring the shortest fiber axis within cross-sections of the tibialis anterior muscle, counting a total of 850-1500 fibers. The cross sectional area of undamaged and regenerating myofibers of the tibialis anterior muscle from wild-type and Fbn1^C1039G/+ mice was expressed as a distribution of the percentage of the total number of myofibers analyzed (850-1500) (Horsley, V. et al (2003) Cell 113, 483-94). […]

mdx mice = test: Muscle regeneration after cardiotoxin injury in 9-month old mdx mice
Procedure: All mouse protocols were approved by the Animal Care and Use Committee of Johns Hopkins University School of Medicine. Creation of the mouse line harboring the Fbn1 mutation C1039G has been previously described (Judge, D. P. et al. (2004) J Clin Invest 114, 172-81). All analyses were performed in male mice after back-crossing (>9 times) this mutation into the C57BL/6J background, allowing valid comparisons between litters. Mice were sacrificed with an inhalation overdose of halothane (Sigma-Aldrich) or by cervical dislocation. For muscle regeneration experiments in Fbn1^C1039G/+ mice, 100 μl cardiotoxin (10 μM Naja nigricollis; Calbiochem, La Jolla, Calif.) (Goetsch, S. C. et al. (2003) Physiol Genomics 14, 261-71; Cohn, R. D. et al. (2002) Cell 110, 639-48) was injected into the tibialis anterior muscle of wild-type and Fbn1^C1039G/+ mice either treated or untreated with TGFβ neutralizing antibody (n=6, each group) at 4 months of age. Subsequently, mice were analyzed at 4, 7, 18 and 28 days after injury. For regeneration experiments in mdx mice we injected 150 μl of cardiotoxin into the tibialis anterior muscle of wild-type and mdx mice, either treated or untreated with TGFβ neutralizing antibody (n=6 each group) at 9 months of age and analyzed skeletal muscle at 4 days and 18 days after injection.
as §1, with “The experiments for forelimb and hindlimb grip strength testing were conducted at different days allowing for a minimum recovery period of 10 days.” left out, “832-6).” for “832-6). Five measurements within 2 minutes were taken from each animal.”

Fbn1C1039G/+ mice [2] = test: Postnatal treatment with losartan and propranolol, aorta of Fbn1C1039G/+ mice; conditions: for Aortic root growth rate: during 6 months of treatment
Excerpt: However, before treatment, the aortic diameter in Fbn1C1039G/+ mice was always greater than in untreated wild-type mice (1.59±0.11 mm; P<0.002).
Three independent aortic root measurements were obtained for each mouse every 2 months during the 6 months of treatment. Mice were killed at 8 months of age. […] The aortic root growth rate over this period was less in the wild-type mice than in the placebo-treated Fbn1C1039G/+ mice (P<0.0001, FIG. 21I).

[3] = 6 months of treatment, monopotassium salt

## CCCCc1nc(Cl)c(CO)n1Cc1ccc(-c2ccccc2-c2nnn[nH]2)cc1.[K] [losartan, 2-butyl-4-chloro-1-[p-(o-1H-tetrazol-5-ylphenyl)benzyl]imidazole-5-methanol monopotassium salt]
Fbn1C1039G/+ mice [1]; listed as Losartan
  Steady-state muscle architecture, in words: rescued; also recorded: normalized
Fbn1C1039G/+ mice [1]
  Steady-state muscle architecture, in words: fully normalized
Fbn1C1039G/+ mice [1]; steady state, postnatal losartan, untreated 1746±39, wild-type 2741±69
  Mean fiber size (muscle fiber cross sectional area): 2527±58 μm^2
Mdx mice; 4 days after cardiotoxin, neonatal myosin staining
  Muscle regeneration in mdx mice, in words: active regeneration comparable to that seen in wild-type mice
Mdx mice; 18 days after cardiotoxin, monopotassium salt
  Fibrosis (vimentin) after injury, in words: reduced fibrosis; also recorded: marked reduction in fibrosis
Mdx mice; four days after injury, untreated mdx 268±12, wild-type 689±19
  Neonatal myosin positive fibers: 513±14 neonatal myosin positive fibers per tibialis anterior muscle
Fbn1C1039G/+ mice [2]; [3]
  Aortic wall / elastic fiber architecture: full normalization relative to wild-type mice
  Aortic wall thickness: full normalization relative to wild-type mice; also recorded: indistinguishable from that seen in wild-type mice
Fbn1C1039G/+ mice [2]; listed as Losartan, monopotassium salt
  Aortic root growth rate: normalizes growth rate
Fbn1C1039G/+ mice [2]; monopotassium salt
  Aortic root growth rate: indistinguishable from that in the wild-type group
Fbn1C1039G/+ mice [2]; from 7 weeks of age, 6 months, drinking water, monopotassium salt
  Elastic fiber fragmentation (VVG staining): prevented elastic fiber fragmentation; also recorded: Elastic lamellae are intact
Fbn1C1039G/+ mice [2]; from 7 weeks of age, 6 months, monopotassium salt
  TGF-β signaling in aortic media (nuclear pSmad2): blunted TGF-β signaling; also recorded: Nuclear pSmad2 staining is decreased
Fbn1C1039G/+ mice [2]; versus untreated wild-type littermates
  Absolute diameter of the aortic root at the end of treatment: similar
